# According to patent publication US20160274087A1, “SCREENING ASSAY FOR AGENTS THAT INFLUENCE BETA CELL NUMBER AND/OR PHENOTYPE” (VRIJE UNIVERSITEIT BRUSSEL, priority 2013, published 2016):
# Key:
# [1] = test system: rat beta cells; test: Beta cell DNA synthesis/proliferation by EdU (and BrdU) incorporation, incl. LOPAC screen; format: cell-based; settings: for Percent EdU+ cells / Z-Score: LOPAC screen at 1 μM, EdU day 3 to 6; for Percent EdU+ cells: control medium 5.6; for Z-Score: hit cut-off three standard deviations; for effect on 6MP induced DNA-synthesis and increase in cell numbers: JSH-23 10 μM, Bay11-7085 5 μM
# Experimental: (§1) On day 1, 9 and 15 of culture, total numbers of living beta cells per well were determined by semi-automatic cell count, after Hoechst 33342 (Ho) and propidium iodide (PI) staining. Numbers of living beta cells were obtained by subtracting the PI-positive cell numbers from the Ho-positive cell numbers, and correcting for the percent insulin-negative cells, as determined following insulin-immunofluorescence staining. They were expressed as percent of the numbers on day 1. Each condition was also evaluated for increases in the percentage of proliferating beta cells (incorporating the thymidine-analogue 5-ethynyl-2′-deoxyuridine, EdU; 100 μmol/l). To detect beta cells that underwent two successive cycles, cells were sequentially exposed to two different thymidine-analogs, first EdU from day 3 to 6, and then BrdU (100 μmol/l) from day 7 to 10, with a 24-hour label-free period in between. EdU-positive (EdU^+) nuclei were detected with the Click-iT Assay kit (Invitrogen), while BrdU-positive (BrdU^+) nuclei were identified with anti-BrdU antibody.
# Freshly purified beta cells were cultured in control medium for 24 h prior to the addition of the LOPAC test compounds (day 1). The culture medium was refreshed on day 3 and the cells were then cultured further with 5-ethynyl-2′-deoxyuridine (EdU; 10 μM) up to day 6. Cell viability and percentage EdU incorporation were quantified after imaging and image analysis using the BD Pathway Bioimager, as described before (Assefa et al., 2014). To test the significance of compound effect on beta cell proliferation, average Z-score for each compound was calculated and a cut-off for potential positive hits was set at a Z-score of greater than three standard deviations. Thus, a compound is considered a hit only if it increases the percent EdU incorporation to above three standard deviation of the plate-averaged percent EdU incorporation.
# (§2) Sorted beta cells were seeded in 384-well or 6-well plates coated with 804G matrix, and kept in culture for up to 15 days at 37° C. 5% CO2 using Ham F10 supplemented with 1 mM L-glutamine, 0.1 mg/ml streptomycin, 0.075 mg/ml penicillin, 50 μM of isobutyl-1-methylxanthine (IBMX) at 10 mM D-glucose with and without synthetic GCs (6 methyl-prednisolone (6MP), dexamethasone (DEX), GR-modulators (compound A (CPA), mifepristone (MIF), and NFκB inhibitors (JSH-23 en Bay11-7085). Total cell number and beta cell viability was evaluated after incubation with Hoechst 33342 and propidium iodide. All chemicals were from Sigma Life Sciences or Merck. Quantification of cell numbers and analysis of beta-cell viability was done using the Pathway Bioimager (BD Biosciences) and using IPlab and Attovision software for background subtraction as described prior (Assefa et al., 2014). Replicating beta cells were quantified after 24 or 72 hrs incubation with 5-ethynyl-2′-deoxyuridine (EdU, a thymidine analog) using the ClickIT EDU Alexa Fluor assay (Invitrogen). EdU-positive cells were expressed as percentage of total cell number.
# [2] = test system: rat beta cells; test: Beta cell viability / cell death (propidium iodide assay); format: cell-based; settings: for Percent viable cells: LOPAC screen at 1 μM, adult rat beta cells, day 6, control medium 97
# Excerpt: as §1, with “Numbers” for “On day 1, 9 and 15 of culture, total numbers of living beta cells per well were determined by semi-automatic cell count, after Hoechst 33342 (Ho) and propidium iodide (PI) staining. Numbers”, “Each condition was also evaluated for increases in the percentage of proliferating beta cells (incorporating the thymidine-analogue 5-ethynyl-2′-deoxyuridine, EdU; 100 μmol/l).” left out
# (§3) Absolute number of cells was determined by whole-well imaging using the BD-PathwayBioimager855 (BD-Biosciences). IPLab and AttoVision software packages (BD-Biosciences) were used for image background subtraction, segmentation and quantification.
# Freshly purified beta cells were cultured in control medium for 24 h prior to the addition of the LOPAC test compounds (day 1). The culture medium was refreshed on day 3 and the cells were then cultured further with 5-ethynyl-2′-deoxyuridine (EdU; 10 μM) up to day 6. […] Thus, a compound is considered a hit only if it increases the percent EdU incorporation to above three standard deviation of the plate-averaged percent EdU incorporation.
# [3] = test system: GR trans-repression and trans-activation targets, cell cycle genes and beta cell phenotype markers; test: Q-PCR of mRNA levels in cultured beta cells; format: cell-based, rat; settings: for effect on ICAM1 mRNA levels: NFkB-inhibitors, relative to vehicle control
# [4] = test system: rat beta cells; test: Number of living beta cells in culture (Hoechst 33342/propidium iodide whole-well imaging counts; expansion assay); format: cell-based
# Experimental: (§4) Beta cells were FACS-purified from islet-cell enriched suspensions (Pipeleers et al., 1985) prepared from neonatal (2-3 days-old) and adolescent or adult (8 or 40-week-old, male) Wistar rats (Janvier Bioservices, France); their purity was, respectively 70-75% and over 90%. Sorted cells were counted in a hemocytometer, seeded (day 0) and cultured for up to 15 days in serum-free Ham's-F10 medium at 5, 10 or 20 mmol/l glucose, supplemented with 2 mmol/l L-glutamine, 50 μM 3-isobutyl-1-methylxanthine, 0.5% Albumax-I, penicillin (100 U/ml) and streptomycin (0.1 mg/ml). The 10 mmol/l glucose condition is known to maintain beta cell survival over 9-days (Ling et al., 1994; Ling and Pipeleers, 1994). Medium and cells were retrieved after selected culture periods and assayed for insulin content; data were expressed as a function of the number of living beta cells that was determined in parallel wells.
# as §1, §3
# Experimental procedures for isolation of beta cells from neonatal (2-3 days old) and adult (8 or 40 week old, male) Wistar rats (Janvier Bioservices, France) and analysis of their number, viability and proliferation activity in culture have been described before (Assefa et al., 2014). Sorted beta cells were seeded in 804G matrix-coated plates (designated as day 0) and the numbers and viability of seeded cells at the start of all experiments were determined on day 1 (24 h after seeding). The cells were cultured in control medium, which is a serum-free Ham's F10 medium supplemented with 2 mM L-glutamine, 50 μM 3-isobutyl-1-methylxanthine, 0.5% Albumax I, penicillin (100 U/ml), streptomycin (0.1 mg/ml) and, unless indicated otherwise, 10 mM glucose.
# as §2, with “2014).” for “2014). Replicating beta cells were quantified after 24 or 72 hrs incubation with 5-ethynyl-2′-deoxyuridine (EdU, a thymidine analog) using the ClickIT EDU Alexa Fluor assay (Invitrogen). EdU-positive cells were expressed as percentage of total cell number.”
# [5] = test system: rat beta cells; test: Cellular insulin content, insulin release and glucose-stimulated insulin secretion of cultured beta cells; format: cell-based
# Experimental: as §4
# [6] = 9 days culture, 1 μM 6MP, 1 μM MIF, 0.5 μM CPA, vehicle = 1.0
structure (smiles),measurement,setting,value
O=C(CO)[C@@H](O)[C@@H](O)[C@H](O)[C@H](O)CO [mannoheptulose],baseline and GC-induced proliferation of beta cells,"[1]; competitive inhibition of GK, data not shown",reduces
C[C@@H]1C[C@@H]([C@H](O)CC2CC(=O)NC(=O)C2)C(=O)[C@@H](C)C1 [cycloheximide],number of dead cells (induction of apoptosis),"[2]; within 48 h, purified rat beta cells",dose-dependent increase in the number of dead cells
CCCC1O[C@@H]2C[C@H]3[C@@H]4CCC5=CC(=O)C=C[C@]5(C)[C@H]4[C@@H](O)C[C@]3(C)[C@]2(C(=O)CO)O1 (stereo partly shown) [Budesonide],Percent EdU+ cells,[1]; adult rat beta cells,24.9%
same,Z-Score,[1]; adult rat beta cells,4.1
same,Percent viable cells,[2],97%
COC(=O)C1=C(C)NC(C)=C([N+](=O)[O-])C1c1ccccc1C(F)(F)F (racemic) [(±)-Bay K 8644],hit status in LOPAC screen based on Z-scores,"[1]; 1 μM, adult rat beta cells",potential inducers of beta cell proliferation
Cc1ccc(NCCCc2ccccc2)c(N)c1 [JSH-23],effect on 6MP induced DNA-synthesis and increase in cell numbers,[1],does not inhibit
same,effect on ICAM1 mRNA levels,[3],suppressing
"C[C@H]1C[C@@H]2[C@H]([C@@H](O)C[C@@]3(C)[C@H]2CC[C@]3(O)C(=O)CO)[C@@]2(C)C=CC(=O)C=C12 [6MP, 6-methylprednisolone]",cells after 15-day culture compared to day 1 numbers,[4]; 10 mM glucose and MP,152±5%
same,change of beta cell numbers between day 1 and 15,"[4]; 6MP 1 μM, DEX 0.01 μM, CPA 0.5 μM",nearly double
same,increase in absolute number of living beta cells in culture,[4]; two-weeks culture,near population doubling
same,final concentration of optimal potency (dose-response studies),"[1]; survival and proliferation of rat beta cells, data not shown",1000 nM
same,Insulin Release during last 72 h of culture,"[5]; 9 days, 6MP followed by 6 days, basal",1.6 ± 1 ng/10^3 cells/h
same,"glucose-induced insulin secretion, Day 15","[5]; 9 days, 6MP followed by 6 days, basal, 2.5 mM glucose",24.4 ± 3.3 % of content/h
same,"glucose-induced insulin secretion, Day 15","[5]; 9 days, 6MP followed by 6 days, basal, 5 mM glucose",34.3 ± 3.9 % of content/h
same,"glucose-induced insulin secretion, Day 15","[5]; 9 days, 6MP followed by 6 days, basal, 10 mM glucose",46.8 ± 7.7 % of content/h
same,"glucose-induced insulin secretion, Day 15","[5]; 9 days, 6MP followed by 6 days, basal, 20 mM glucose",52.1 ± 1.8 % of content/h
same,Insulin Release during last 72 h of culture,"[5]; 15 days, 6MP",0.9 ± 0.1 ng/10^3 cells/h
same,"glucose-induced insulin secretion, Day 15","[5]; 15 days, 6MP, 2.5 mM glucose",35.3 ± 7.4 % of content/h
same,"glucose-induced insulin secretion, Day 15","[5]; 15 days, 6MP, 5 mM glucose",37.7 ± 4.0 % of content/h
same,"glucose-induced insulin secretion, Day 15","[5]; 15 days, 6MP, 10 mM glucose",43.2 ± 6.8 % of content/h
same,"glucose-induced insulin secretion, Day 15","[5]; 15 days, 6MP, 20 mM glucose",44.0 ± 4.8 % of content/h
same,CDK4 mRNA level (ΔΔCt values relative to basal vehicle control),[3]; [6],1.7 ± 0.2^2
same,CXCL11 mRNA level (ΔΔCt values relative to basal vehicle control),[3]; [6],0.1 ± 0.0^3
same,Cyclin B1 mRNA level (ΔΔCt values relative to basal vehicle control),[3]; [6],4.7 ± 0.7^3
same,Cyclin B2 mRNA level (ΔΔCt values relative to basal vehicle control),[3]; [6],4.8 ± 0.8^3
same,Cyclin E1 mRNA level (ΔΔCt values relative to basal vehicle control),[3]; [6],2.3 ± 0.3^3
same,CyclinD1 mRNA level (ΔΔCt values relative to basal vehicle control),[3]; [6],0.8 ± 0.1^
same,DLK1 mRNA level (ΔΔCt values relative to basal vehicle control),[3]; [6],24491 ± 5157^3
same,FKBP4 mRNA level (ΔΔCt values relative to basal vehicle control),[3]; [6],1.2 ± 0.1^
same,FKBP5 mRNA level (ΔΔCt values relative to basal vehicle control),[3]; [6],15.4 ± 2.2^3
same,GDF11 mRNA level (ΔΔCt values relative to basal vehicle control),[3]; [6],3.8 ± 1.0^3
same,ICAM1 mRNA level (ΔΔCt values relative to basal vehicle control),[3]; [6],0.1 ± 0.1^3
same,MKP1 mRNA level (ΔΔCt values relative to basal vehicle control),[3]; [6],20.7 ± 4.2^3
same,MafA mRNA level (ΔΔCt values relative to basal vehicle control),[3]; [6],0.2 ± 0.1^3
same,MafB mRNA level (ΔΔCt values relative to basal vehicle control),[3]; [6],5.1 ± 0.9^3
same,NNAT mRNA level (ΔΔCt values relative to basal vehicle control),[3]; [6],7.4 ± 1.8^3
same,NPY mRNA level (ΔΔCt values relative to basal vehicle control),[3]; [6],3.8 ± 0.6^3
same,NR3C1 mRNA level (ΔΔCt values relative to basal vehicle control),[3]; [6],1.0 ± 0.1^
same,Pdx1 mRNA level (ΔΔCt values relative to basal vehicle control),[3]; [6],0.5 ± 0.2^3
same,TRH mRNA level (ΔΔCt values relative to basal vehicle control),[3]; [6],5.3 ± 0.5^3
CC(C)(C)c1ccc(S(=O)(=O)/C=C/C#N)cc1 [Bay11-7085],effect on 6MP induced DNA-synthesis and increase in cell numbers,[1],does not inhibit
same,effect on ICAM1 mRNA levels,[3],suppressing
C[C@]12CCC(=O)C=C1CC[C@@H]1[C@@H]2CC[C@@]2(C)[C@H]1CC[C@]2(O)C(=O)CO [Cortexolone],Percent EdU+ cells,[1]; adult rat beta cells,13.1%
same,Z-Score,[1]; adult rat beta cells,4.1
same,Percent viable cells,[2],97%
C[C@H]1C[C@H]2[C@@H]3CCC4=CC(=O)C=C[C@]4(C)[C@@]3(F)[C@@H](O)C[C@]2(C)[C@@]1(O)C(=O)CO [Betamethasone],Percent EdU+ cells,[1]; adult rat beta cells,21.1%
same,Z-Score,[1]; adult rat beta cells,5.5
same,Percent viable cells,[2],95%
"CS(=O)(=O)c1ccc([C@@H](CC2CCCC2)C(=O)Nc2nccs2)cc1 [GKA, RO-28-1675]",effect of 15-day continuous treatment on beta cell survival,"[2]; 10 mM glucose, irrespective of MP, data not shown",induces cytotoxicity and a net cell loss
same,marked cytotoxicity at day 15,"[2]; GKA 3 μm, beta cells from 8- and 40-week old rats, 5 mmol/l glucose, data not shown",not observed
same,dead cells at day 15 (cytotoxicity),"[2]; GKA 3 μm, neonatal beta cells, 5 mmol/l glucose",> 50%
C[C@H]1C[C@H]2[C@@H]3CCC4=CC(=O)C=C[C@]4(C)[C@@]3(Cl)[C@@H](O)C[C@]2(C)[C@@]1(O)C(=O)CO [Beclomethasone],Percent EdU+ cells,[1]; adult rat beta cells,20.6%
same,Z-Score,[1]; adult rat beta cells,5.9
same,Percent viable cells,[2],96%
